From PubChem BioAssay (NCI)
Values joined by “and” are separate entries in the source; they are usually repeats but may differ in a detail not shown here. Identical values can stand only once.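 48-hour exposure; five concentrations; linearly interpolated endpoints. GI50 is the concentration that inhibits growth by half. TGI is the concentration that stops growth completely.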

Legend:
Assay in all cases: inhibition of tumour cell growth, NCI panel, 48 h
[1] = tested on: NCI-H23 lung
[2] = tested on: HCC-2998 colon
[3] = tested on: HOP-62 NSCLC
[4] = tested on: SF-268 CNS
[5] = tested on: KM12 colon
[6] = tested on: SF-295 CNS
[7] = tested on: RXF 393 renal
[8] = tested on: LOX IMVI melanoma
[9] = tested on: DU-145 prostate
[10] = tested on: T-47D breast

CCOc1ccc2c(c1)[n+]([O-])c(S(=O)(=O)c1ccc(C)cc1)c(N)[n+]2[O-]
TGI [1]: > 100 µM | TGI [2]: > 100 µM | TGI [3]: > 100 µM | TGI [4]: > 100 µM | TGI [5]: > 100 µM | TGI [6]: > 100 µM

CCCCN(CCCC)C(=O)C(=O)C(C#N)c1ccc(C)cc1 (stereo not given)
TGI [1]: > 100 µM | TGI [2]: > 100 µM | TGI [3]: > 100 µM | TGI [4]: > 100 µM | TGI [7]: > 100 µM | TGI [8]: > 100 µM | TGI [5]: > 100 µM | TGI [6]: > 100 µM

O=C(c1ccco1)c1nc2ccc(C(F)(F)F)cc2[n+]([O-])c1C(F)(F)F
GI50 [1]: 46.7 µM | TGI [1]: > 100 µM | GI50 [2]: 85.6 µM | TGI [2]: > 100 µM | GI50 [9]: 42.7 µM | TGI [9]: > 100 µM | GI50 [3]: 33.6 µM | TGI [3]: > 100 µM | GI50 [4]: 34.3 µM | TGI [4]: > 100 µM | GI50 [7]: 22.2 µM | TGI [7]: 80 µM | GI50 [8]: > 100 µM | TGI [8]: > 100 µM | GI50 [5]: 67.7 µM | TGI [5]: > 100 µM | GI50 [6]: 53.2 µM | TGI [6]: > 100 µM

N#C/C(=C/c1ccsc1)C(=O)c1ccccc1
TGI [1]: > 100 µM | TGI [2]: > 100 µM | TGI [3]: > 100 µM | TGI [4]: > 100 µM | TGI [7]: > 100 µM | TGI [8]: > 100 µM | TGI [5]: > 100 µM | TGI [6]: > 100 µM

COc1ccc2[nH]c3c(C)c4c(c(C)c3c2c1)CN(C)CC4
TGI [2]: 31.4 µM | TGI [3]: 32.4 µM | TGI [4]: 48.3 µM | TGI [7]: 36.2 µM | TGI [8]: 27.6 µM | TGI [5]: 27.1 µM | TGI [6]: 32.9 µM

CCOC(=O)/C=C(/C(=O)OCC)n1cc(Cl)c(=O)n(CC(=O)OCC)c1=O
GI50 [1]: 20 µM | TGI [1]: 10.8 µM and 41.5 µM | GI50 [10]: 1.31 µM | TGI [10]: 18.9 µM and 4.28 µM | TGI [9]: 8.47 µM and 31.3 µM | GI50 [3]: 30.8 µM | TGI [3]: 25 µM and 91.3 µM | GI50 [4]: 24 µM | TGI [4]: 12.2 µM and 41.4 µM | GI50 [7]: 0.298 µM | TGI [7]: 8.55 µM and 2.59 µM | GI50 [8]: 15.2 µM | TGI [8]: 8.17 µM and 34.5 µM | GI50 [5]: 21.2 µM | TGI [5]: > 25 µM and 43.8 µM | GI50 [6]: > 100 µM | TGI [6]: > 100 µM

O=C1/C(=C/c2ccc(Cl)cc2Cl)N=C(c2ccccc2)N1Cc1ccco1
GI50 [1]: 26.2 µM | TGI [1]: 81.6 µM | GI50 [2]: 26.7 µM | TGI [2]: 76.1 µM | GI50 [9]: 21.1 µM | TGI [9]: 51 µM | GI50 [3]: 18.4 µM | TGI [3]: 38.9 µM | GI50 [4]: 20.2 µM | TGI [4]: 49.5 µM | GI50 [7]: 22.6 µM | TGI [7]: 51.8 µM | GI50 [8]: 50.5 µM | TGI [8]: > 100 µM | GI50 [5]: 33.7 µM | TGI [5]: > 100 µM | GI50 [6]: 22.2 µM | TGI [6]: 45.9 µM

COc1ccc(CNc2cc(OC)c(OC)c(OC)c2)cc1
TGI [1]: > 55.9 µM | TGI [2]: 32.3 µM | TGI [3]: > 71.5 µM | TGI [4]: 28.6 µM | TGI [7]: 23 µM | TGI [8]: > 100 µM | TGI [5]: > 41.7 µM | TGI [6]: > 55.1 µM

Cc1ccc(S(=O)(=O)N(CCOc2ccc(/C(N)=N/Cl)cc2)CCOc2ccc(/C(N)=N\Cl)cc2)cc1
GI50 [1]: 12 µM | TGI [1]: 40.1 µM | GI50 [2]: 18.2 µM | TGI [2]: 46.3 µM | GI50 [10]: 15.3 µM | TGI [10]: 81.7 µM | GI50 [9]: 16.1 µM | TGI [9]: 48 µM | GI50 [3]: 12 µM | TGI [3]: 33.2 µM | GI50 [4]: 5.76 µM | TGI [4]: 20 µM | GI50 [8]: 16.7 µM | TGI [8]: > 100 µM | GI50 [5]: 12.4 µM | TGI [5]: 28.1 µM | GI50 [6]: 7.71 µM | TGI [6]: 42.9 µM

O=C(CN1CCOCC1)Nc1ccc(Cn2nnc3c2C(=O)c2nnn(Cc4ccc(NC(=O)CN5CCOCC5)cc4)c2C3=O)cc1
GI50 [1]: 0.802 µM | TGI [1]: 3.61 µM | GI50 [2]: 0.348 µM | TGI [2]: 1.34 µM | GI50 [9]: 1.38 µM | TGI [9]: 2.7 µM | GI50 [3]: 1.64 µM | TGI [3]: 3.46 µM | GI50 [4]: 0.334 µM | TGI [4]: 1.94 µM | GI50 [7]: 1.34 µM | TGI [7]: 2.92 µM | GI50 [8]: 0.275 µM | TGI [8]: 1.35 µM | GI50 [5]: 0.959 µM | TGI [5]: 5.23 µM | GI50 [6]: 1.65 µM | TGI [6]: 3.68 µM

COc1cc2c3c(n(C)c(=O)c2cc1OC)-c1cc2c(cc1/C3=C\CCCN1C(=O)c3ccccc3C1=O)OCO2
GI50 [1]: > 40 µM | TGI [1]: > 40 µM | GI50 [10]: > 40 µM | TGI [10]: > 40 µM | GI50 [9]: 6.73 µM | TGI [9]: > 40 µM | GI50 [3]: 19.2 µM | TGI [3]: > 40 µM | GI50 [4]: 14.2 µM | TGI [4]: > 40 µM | GI50 [7]: > 40 µM | TGI [7]: > 40 µM | GI50 [8]: 20.8 µM | TGI [8]: > 40 µM | GI50 [5]: 5.1 µM | TGI [5]: > 40 µM | GI50 [6]: 3.61 µM | TGI [6]: > 40 µM

CN(C)CCNc1cc(-c2ccccc2)nc2ccccc12
GI50 [1]: 11.2 µM | TGI [1]: 37.6 µM | GI50 [2]: 10.2 µM | TGI [2]: 25.1 µM | GI50 [10]: 8.79 µM | TGI [10]: 37.2 µM | GI50 [9]: 5.04 µM | TGI [9]: 22.2 µM | GI50 [3]: 6.02 µM | TGI [3]: 32.9 µM | GI50 [4]: 4.98 µM | TGI [4]: 22.7 µM | GI50 [8]: 3.6 µM | TGI [8]: 14.4 µM | GI50 [5]: 4.87 µM | TGI [5]: 27.4 µM | GI50 [6]: 7.85 µM | TGI [6]: 46.9 µM

O=C(O)Cn1ccc(=O)c2ccc([N+](=O)[O-])cc21
TGI [1]: > 100 µM | TGI [2]: > 100 µM | TGI [10]: > 100 µM | TGI [9]: > 100 µM | TGI [3]: > 100 µM | TGI [4]: > 100 µM | TGI [5]: > 100 µM | TGI [6]: > 100 µM

CC1(Cl)C(=O)NC(=O)N(C2CC(N=[N+]=[N-])C(CO)O2)C1N=[N+]=[N-] (stereo not given)
TGI [1]: > 100 µM | TGI [2]: > 100 µM | TGI [3]: > 100 µM | TGI [4]: > 100 µM | TGI [7]: > 100 µM | TGI [8]: > 100 µM | TGI [5]: > 100 µM | TGI [6]: > 100 µM

COc1cc(C2c3cc4c(cc3C(NCC(O)CO)C3COC(=O)[C@H]23)OCO4)cc(OC)c1OC (stereo not given in full)
TGI [1]: 0.797 µM | TGI [2]: > 100 µM | TGI [3]: 0.676 µM | TGI [4]: > 100 µM | TGI [8]: > 100 µM | TGI [5]: > 100 µM

COc1ccc2cc1Oc1ccc(cc1)CC1c3cc(c(OC)cc3CCN1C)Oc1c3c(cc4c1C(C2)N(C)CC4)OCO3 (stereo not given)
TGI [1]: 31.9 µM | TGI [2]: 24.2 µM | TGI [3]: 29.8 µM | TGI [4]: 22.5 µM | TGI [7]: 6.24 µM | TGI [8]: 4.72 µM | TGI [5]: 27.2 µM | TGI [6]: 21.9 µM

COC(=O)C1=C(C(=O)OC)C2C=CC1C1C(Cl)=C(Cl)C21 (stereo not given)
TGI [1]: > 100 µM | TGI [2]: > 100 µM | TGI [3]: > 100 µM | TGI [4]: > 100 µM | TGI [7]: > 100 µM | TGI [8]: > 100 µM | TGI [5]: > 100 µM | TGI [6]: > 100 µM

CCCCCCCCCC[C@@H](O)[C@@H]1CC[C@H]([C@H]2CC[C@@H]([C@@H](O)CCCCCCCCCC[C@H]3CC(CC(C)=O)C(=O)O3)O2)O1 (stereo not given in full)
TGI [1]: 16.4 µM | TGI [2]: 47 µM | TGI [3]: 31 µM | TGI [4]: 31.4 µM | TGI [8]: 36 µM
